# Source: article PMC12383815 (Biomolecules, 2025)
# Where a name gives a salt, the structure may show the parent alone.
# Biological target: T1, shikimate dehydrogenase (SaSDH) (Staphylococcus aureus, UniProt Q6GGA5)
# T1 construct: gene aroE
# T1 sequence (Q6GGA5 1-268): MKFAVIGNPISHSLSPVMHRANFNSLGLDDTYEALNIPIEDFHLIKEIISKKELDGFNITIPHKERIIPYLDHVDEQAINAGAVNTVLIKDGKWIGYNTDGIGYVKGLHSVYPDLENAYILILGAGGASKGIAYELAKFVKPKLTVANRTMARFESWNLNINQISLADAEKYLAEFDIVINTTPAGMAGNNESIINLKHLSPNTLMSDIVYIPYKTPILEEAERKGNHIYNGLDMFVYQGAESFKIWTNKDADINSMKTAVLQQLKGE
# Assay: biochemical
# Parameters: SaSDH enzyme activity inhibition screening at 500 uM, 10% DMSO
# Conditions: not given
# Protocol: The inhibition percentage was determined by measuring enzyme activity under the conditions previously described by adding each compound from an in-house natural product derivative chemical library (40 compounds) to the reaction mixture at quantities of 500 μM; these compounds had been previously dissolved in Dimethyl Sulfoxide (DMSO), keeping 10% DMSO as final concentration. The percentage inhibition was calculated by adjusting the data from the following equation [33]: Inhibition %=A0−A1/A0 ×100 where the following definitions are used: In the search for new SaSDH inhibitors, an in-house chemical library of 40 natural product derivatives was screened against SaSDH activity. Our findings indicate that among the 40 molecules evaluated, the compounds phloridzin (93% of inhibition), rutin (87% of inhibition), and caffeic acid (70% of inhibition) inhibited SaSDH using a 500 µM concentration.
row,Structure (SMILES),inhibition at 500 µM
1,Cn1ccnc1S(=O)(=O)Cl [1-Methylimidazole-2-sulfonyl chloride],13%
2,O=Cc1c[nH]c2c1ccc1ccccc12 [1H-Benzo[g]indole-3-carboxaldehyde],19%
3,"Clc1ccnc(Cl)c1 [2,4-Dichloropyridine]",19%
4,"Nc1nc(-c2ccc3c(c2)CCCC3)cs1 [2-Amino-4-(5,6,7,8-tetrahydronaphthalen-2-yl)thiazole]",8%
5,Nc1ccc(Br)cn1 [2-Amino-5-bromopyridine],8%
6,N#Cc1cnc(N)s1 [2-Aminothiazole-5-carbonitrile],17%
7,Brc1nc2ccccc2[nH]1 [2-Bromo-1H-benzimidazole],10%
8,Fc1ccc(Cl)nc1 [2-Chloro-5-fluoropyridine],18%
9,O=C1CNCCN1 [2-Oxopiperazine],13%
10,"C1SCC2OC12 (centres unmarked) [3,4-Epoxy-tetrahydrothiophene]",9%
11,COc1cccc(C(=O)O)c1 [3-Methoxybenzoic acid],2%
12,Cc1ncc(CO)c(C)c1O [4-Deoxypyridoxine hydrochloride],12%
13,FC(F)(F)c1ccc(Br)cn1 [5-Bromo-2-(trifluoromethyl)pyridine],9%
14,O=c1[nH]cc(Br)cc1[N+](=O)[O-] [5-Bromo-2-hydroxy-3-nitropyridine],18%
15,O=C(Cl)c1nc2ccccc2s1 [Benzothiazole-2-carbonyl chloride],14%
16,"COC(=O)c1nc[nH]c1C(=O)OC [Dimethyl imidazole-4,5-dicarboxylate]",18%
17,COc1ccc(-c2coc3cc(O)ccc3c2=O)cc1 [Formononetin],13%
18,O=C1O[C@H]([C@@H](O)CO)C(O)=C1O [L-Ascorbic acid],4.5%
19,CC(C)=CCC1=C(O)C(=O)c2ccccc2C1=O [Lapachol],6%
20,COc1cc(C(=O)OCCCCNC(=N)N)cc(OC)c1O [Leonurine],13%
21,CC1=CC(=O)c2ccccc2C1=O [Menadione],17%
22,COC(=O)c1ccc(OC)cc1O [Methyl 4-methoxysalicylate],10%
23,NC(=O)c1cccnc1 [Nicotinamide],5%
24,O=C(O)c1cccnc1 [Nicotinic acid],20%
25,Cc1ncc(CO)c(CO)c1O [Pyridoxine],28%
26,OC[C@H]1O[C@@H](OCCc2ccc(O)cc2)[C@H](O)[C@@H](O)[C@@H]1O [Salidroside],27%

# Biological target: T2, shikimate dehydrogenase (SaSDH) (Staphylococcus aureus, UniProt Q6GGA5)
# T2 construct: gene aroE
# Assay: recombinant enzyme activity, NADPH formation at […] nm, dose-response; progress-curve kinetics
# Format: biochemical
# Conditions: not given
row,Structure (SMILES),IC50
1,O=C(O)/C=C/c1ccc(O)c(O)c1 [Caffeic acid],240 µM
2,O=C(CCc1ccc(O)cc1)c1c(O)cc(O)cc1O[C@@H]1O[C@H](CO)[C@@H](O)[C@H](O)[C@H]1O [Phloridzin],140 µM

# Same assay, conditions: read-out: IC50
row,Structure (SMILES),IC50
1,C[C@@H]1O[C@@H](OC[C@H]2O[C@@H](Oc3c(-c4ccc(O)c(O)c4)oc4cc(O)cc(O)c4c3=O)[C@H](O)[C@@H](O)[C@@H]2O)[C@H](O)[C@H](O)[C@H]1O [Rutin],165 µM
